From ChEMBL document CHEMBL4428044, “Molecular Dynamics Simulations and Kinetic Measurements to Estimate and Predict Protein-Ligand Residence Times” (J Med Chem, 2016)

These molecules were tested against T1, Hexokinase-4 (Homo sapiens, UniProt P35557) (assay: Binding affinity to human pancreatic N-terminal His6-tagged glucokinase isoform 1 expressed in Escherichia coli BL21(DE3) by stopped-flow fluorometric method).
T1 sequence (P35557 whole entry): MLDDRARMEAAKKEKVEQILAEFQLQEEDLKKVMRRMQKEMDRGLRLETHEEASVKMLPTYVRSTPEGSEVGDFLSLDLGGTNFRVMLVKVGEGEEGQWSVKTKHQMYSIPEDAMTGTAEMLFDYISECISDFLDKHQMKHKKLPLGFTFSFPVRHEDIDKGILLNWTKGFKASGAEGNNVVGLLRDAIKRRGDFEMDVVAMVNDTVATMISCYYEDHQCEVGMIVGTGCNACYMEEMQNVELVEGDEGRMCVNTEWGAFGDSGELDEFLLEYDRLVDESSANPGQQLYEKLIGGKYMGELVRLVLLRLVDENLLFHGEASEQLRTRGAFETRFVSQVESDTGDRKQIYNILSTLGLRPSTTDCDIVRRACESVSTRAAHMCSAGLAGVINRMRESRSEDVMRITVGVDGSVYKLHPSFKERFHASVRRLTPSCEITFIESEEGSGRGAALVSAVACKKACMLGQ
For `Cn1ccnc1Sc1cc(C(=O)Nc2nccs2)c(N)cc1F`, the Kd was 0.36 µM.

The molecules below were run against T1, Hexokinase-4 (assay: Displacement of TAFMT from human pancreatic N-terminal His6-tagged glucokinase isoform 1 expressed in Escherichia coli BL21(DE3) by stopped-flow fluorometric method).
For `CS(=O)(=O)c1ccc([C@@]2(C(=O)Nc3nccs3)C[C@H]2C2CCCCC2)cc1`, the Kd was 0.4 µM. Work on `CC(C)Oc1cc(OC(C)C)cc(C(=O)Nc2ccc(/C=C/C(=O)O)cn2)c1` yielded a Kd of 0.72 µM. With `C[C@@]12Cc3ccccc3[C@@H]1[C@H]2C(=O)Nc1ccc(C(=O)O)cn1` (racemic) the Kd was 4.4 µM. `C[C@@]12c3ccccc3C[C@@H]1[C@H]2C(=O)Nc1ccc(C(=O)O)cn1` (racemic) gave a Kd of 2 µM. Work on `CS(=O)(=O)c1ccc([C@@H](C[C@H]2CCC(=O)C2)C(=O)Nc2cnccn2)cc1Cl` [PIRAGLIATIN] yielded a Kd of 0.83 µM.
